The record followed here is patent publication US6620839B2, “1,3-disubstituted and 1,3,3-trisubstituted pyrrolidines as histamine-3 receptor ligands and their therapeutic applications” (Abbott Laboratories, priority 2000, dated 2003).

The experiment addresses T1, histamine-3 receptor (Rattus norvegicus, UniProt Q9QYN8).
T1 construct: from tissue; host or cells: male Sprague-Dawley rat brain cortex membranes
Description: Histamine-3 receptor binding, (3H)-N-α-methylhistamine displacement in rat cortical membranes. As to conditions: male Sprague-Dawley rat brain cortical membranes; (3H)-N-α-methylhistamine ~0.6 nM; 30 minutes at 25° C.; Cheng-Prusoff. How it is done:
Briefly, male Sprague-Dawley rat brain cortices were homogenized (1 g tissue/10 mL buffer) in 50 mM Tris-HCl/5 mM EDTA containing protease inhibitor cocktail (Calbiochem) using a polytron set at 20,500 rpm. Homogenates were centrifuged for 20 minutes at 40,000×g. The supernatant was decanted, and pellets were weighed. The pellet was resuspended by polytron homogenization in 40 mL 50 mM Tris-HCl/5 mM EDTA with protease inhibitors and centrifuged for 20 minutes at 40,000×g. […] Test compounds were dissolved in DMSO to provide 20 mM solution, serially diluted and then added to the incubation mixtures prior to initiating the incubation assay by addition of the membranes. Thioperamide (3 μM) was used to determine nonspecific binding. Binding incubations were conducted for 30 minutes at 25° C. and terminated by addition of 2 mL of ice cold 50 mM Tris-HCl (pH 7.7) and filtration through 0.3% polyethylenimine-soaked Unifilter plates (Packard). These filters were washed 4 additional times with 2 mL of ice-cold 50 mM Tris-HCl and dried for 1 hour. Radioactivity was determined using liquid scintillation counting techniques. Results were analyzed by Hill transformation and Ki values were determined using the Cheng-Prusoff equation.

pKi: −log10 of the molar value.

T1 sequence (Q9QYN8 whole entry): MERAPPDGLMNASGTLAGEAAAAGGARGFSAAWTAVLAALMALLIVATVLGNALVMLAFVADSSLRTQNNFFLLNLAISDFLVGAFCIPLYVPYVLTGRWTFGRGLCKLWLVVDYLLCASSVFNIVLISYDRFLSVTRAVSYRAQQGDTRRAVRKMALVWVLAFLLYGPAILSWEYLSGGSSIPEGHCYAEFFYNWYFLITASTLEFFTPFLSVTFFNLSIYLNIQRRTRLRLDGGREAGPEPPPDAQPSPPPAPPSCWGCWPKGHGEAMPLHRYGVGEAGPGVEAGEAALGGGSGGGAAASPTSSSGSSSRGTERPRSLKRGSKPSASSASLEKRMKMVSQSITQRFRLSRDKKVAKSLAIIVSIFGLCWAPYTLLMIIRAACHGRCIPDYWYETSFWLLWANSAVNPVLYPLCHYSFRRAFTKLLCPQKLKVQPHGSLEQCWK

The pKi is the Ki on a negative log10 scale, so that one unit is a factor of ten. The compound `CN([C@@H]1CCN(CCCOc2ccc(-c3ccc(C#N)cc3)cc2)C1)S(=O)(=O)c1ccc(S(C)(=O)=O)cc1` [Example 128] had a negative-log Ki (pKi) of 8.64. For `Cc1cccc(S(=O)(=O)N[C@@H]2CCN(CCCOc3ccc(C(=O)C4CC4)cc3)C2)c1` [Example 91, N-((3R)-1-{3-[4-(cyclopropylcarbonyl)phenoxy]propyl}pyrrolidinyl)-3-methylbenzenesulfonamide] the value was 8.55; for `O=C(c1ccc(OCCCN2CC[C@@H](NS(=O)(=O)c3cccc4cccnc34)C2)cc1)C1CC1` [Example 84, N-((3R)-1-{3-[4-(cyclopropylcarbonyl)phenoxy]propyl}pyrrolidinyl)-8-quinolinesulfonamide], 8.02. In the case of `CC(=O)Nc1ccc(S(=O)(=O)N[C@@H]2CCN(CCCOc3ccc(-c4ccc(C#N)cc4)cc3)C2)cc1` [Example 19, N-(4-{[((3R)-1-{3-[(4′-cyano[1,1′-biphenyl]-4-yl)oxy]propyl}pyrrolidinyl)amino]sulfonyl}phenyl)acetamide], the pKi is 8.42.

With `CC(=O)c1ccc(OCCCN2CC[C@@H](NS(=O)(=O)c3ccc(C#N)cc3)C2)cc1` [Example 5, N-{(3R)-1-[3-(4-acetylphenoxy)propyl]pyrrolidinyl}-4-cyanobenzenesulfonamide], the negative-log Ki (pKi) is 8.20.

For the compound `CC(=O)c1ccc(OCCCN2CC[C@@H](NS(=O)(=O)c3ccc(Oc4ncc(C(F)(F)F)cc4Cl)cc3)C2)cc1` [Example 79, N-{(3R)-1-[3-(4-acetylphenoxy)propyl]pyrrolidinyl}-4-{[3-chloro-5-(trifluoromethyl)-2-pyridinyl]oxy}benzenesulfonamide], the negative logarithm of the Ki (pKi) was 8.10. Take `COc1ccc(S(=O)(=O)N[C@@H]2CCN(CCCOc3ccc(C(=O)C4CC4)cc3)C2)cc1OC` [Example 86, N-((3R)-1-{3-[4-(cyclopropylcarbonyl)phenoxy]propyl}pyrrolidinyl)-3,4-dimethoxybenzenesulfonamide]: the negative-log Ki (pKi) is 8.74. `O=C(c1ccc(OCCCN2CC[C@@H](NS(=O)(=O)c3ccc(F)cc3)C2)cc1)C1CC1` [Example 57, N-((3R)-1-{3-[4-(cyclopropylcarbonyl)phenoxy]propyl}pyrrolidinyl)-4-fluorobenzenesulfonamide] had a pKi of 8.44. Then `CC(=O)Nc1nc(C)c(S(=O)(=O)N[C@@H]2CCN(CCCOc3ccc(-c4ccc(C#N)cc4)cc3)C2)s1` [Example 39, N-(5-{[((3R)-1-{3-[(4′-cyano[1,1′-biphenyl]-4-yl)oxy]propyl}pyrrolidinyl)amino]sulfonyl}-4-methyl-1,3-thiazol-2-yl)acetamide], with 8.12.

Consider `Cc1cc(-c2ccc(C#N)cc2)ccc1OCCCN1CC[C@@H](N(C)C)C1` [Example 168, 4′-{3-[(3R)-3-(dimethylamino)-1-pyrrolidinyl]propoxy}-3′-methyl-1,1′-biphenyl-4-carbonitrile], for which the pKi is 7.13. Compound `N#Cc1ccc(-c2ccc(OCCCN3CC[C@@H](NS(=O)(=O)c4ccc(F)cc4)C3)cc2)cc1` [Example 17] had a pKi of 7.89. This pKi is 0.76 log units higher than that of the compound before. Then `CC(=O)c1ccc(OCCCN2CC[C@@H](NC(=O)C3CC3)C2)cc1` [Example 1, N-{(3R)-1-[3-(4-acetylphenoxy)propyl]pyrrolidinyl}cyclopropanecarboxamide], with 6.98; and `N#Cc1ccc(-c2ccc(OCCCN3CC[C@@H](NC(=O)N4CCOCC4)C3)cc2)cc1` [Example 138], with 6.93; and `CC(C)(C)CC(=O)N[C@@H]1CCN(CCCOc2ccc(-c3ccc(C#N)cc3)cc2)C1` [Example 131], with 7.29. For `CC(=O)c1ccc(OCCCN2CC[C@@H](NS(=O)(=O)C(C)C)C2)cc1` [Example 6, N-{(3R)-1-[3-(4-acetylphenoxy)propyl]pyrrolidinyl}-2-propanesulfonamide] the value was 7.02; for `COc1ccc(S(=O)(=O)N[C@@H]2CCN(CCCOc3ccc(-c4ccccn4)cc3)C2)cc1OC` [Example 106, 3,4-dimethoxy-N-((3R)-1-{3-[4-(2-pyridinyl)phenoxy]propyl}pyrrolidinyl)benzenesulfonamide], 6.77; for `O=C(c1ccc(OCCCN2CC[C@@H](NS(=O)(=O)c3cccc(Cl)c3)C2)cc1)C1CC1` [Example 70, 3-chloro-N-((3R)-1-{3-[4-(cyclopropylcarbonyl)phenoxy]propyl}pyrrolidinyl)benzenesulfonamide], 8.52.

Regarding `O=C(c1ccc(OCCCN2CC[C@@H](NS(=O)(=O)c3ccc(OC(F)(F)F)cc3)C2)cc1)C1CC1` [Example 94, N-((3R)-1-{3-[4-(cyclopropylcarbonyl)phenoxy]propyl}pyrrolidinyl)-4-(trifluoromethoxy)benzenesulfonamide], the pKi is 8.31. Compared with the last compound, the pKi is 0.21 log units lower.

For the compound `N#Cc1ccc(-c2ccc(OCCCN3CC[C@@H](NC(=O)c4csc(-c5cccnc5)n4)C3)cc2)cc1` [Example 143], the negative logarithm of the Ki (pKi) is 7.07. `O=C(c1ccc(OCCCN2CC[C@@H](NS(=O)(=O)c3ccc(Br)cc3)C2)cc1)C1CC1` [Example 56, 4-bromo-N-((3R)-1-{3-[4-(cyclopropylcarbonyl)phenoxy]propyl}pyrrolidinyl)benzenesulfonamide] had a pKi of 8.33. This pKi lies 1.26 log units higher than the previous one.

In turn, `N#Cc1ccc(-c2ccc(OCCCN3CC[C@@H](NS(=O)(=O)c4cccc(Cl)c4)C3)cc2)cc1` [Example 31, 3-chloro-N-((3R)-1-{3-[(4′-cyano[1,1′-biphenyl]-4-yl)oxy]propyl}pyrrolidinyl)benzenesulfonamide] showed a pKi of 7.52. With `CC(=O)c1ccc(OCCCN2CC[C@@H](NS(=O)(=O)c3cccn3-c3ncc(C(F)(F)F)cc3Cl)C2)cc1` [Example 78, N-{(3R)-1-[3-(4-acetylphenoxy)propyl]pyrrolidinyl}-1-[3-chloro-5-(trifluoromethyl)-2-pyridinyl]-1H-pyrrole-2-sulfonamide], the negative-log Ki (pKi) was 8.06. This pKi is 0.54 log units higher than that of the compound before. For `O=C(c1ccc(OCCCN2CC[C@@H](NS(=O)(=O)c3ccc(Cl)c(Cl)c3)C2)cc1)C1CC1` [Example 97, 3,4-dichloro-N-((3R)-1-{3-[4-(cyclopropylcarbonyl)phenoxy]propyl}pyrrolidinyl)benzenesulfonamide] the value was 8.17; for `CN(C(=O)OC(C)(C)C)[C@@H]1CCN(CCCOc2ccc(-c3ccc(C#N)cc3)cc2)C1` [Example 109, tert-butyl (3R)-1-{3-[(4′-cyano[1,1′-biphenyl]-4-yl)oxy]propyl}pyrrolidinyl(methyl)carbamate], 7.59. For `COc1ccc(S(=O)(=O)N[C@@H]2CCN(CCCOc3ccc(-c4ccc(C#N)cc4)cc3)C2)cc1OC` [Example 42], the negative-log Ki (pKi) was 8.06. The compound `CC(=O)N[C@@H]1CCN(CCCOc2ccc(-c3ccc(C#N)cc3)cc2)C1` [Example 130] had a pKi of 7.51. Then `O=C(c1ccc(OCCCN2CC[C@@H](NS(=O)(=O)c3ccc(F)c(Cl)c3)C2)cc1)C1CC1` [Example 65, 3-chloro-N-((3R)-1-{3-[4-(cyclopropylcarbonyl)phenoxy]propyl}pyrrolidinyl)-4-fluorobenzenesulfonamide], with 8.30; and `CC(=O)c1ccc(OCCCN2CC[C@@H](NC(=O)CSc3nccc(C)n3)C2)cc1` [Example 2, N-{(3R)-1-[3-(4-acetylphenoxy)propyl]pyrrolidinyl}-2-[(4-methyl-2-pyrimidinyl)sulfanyl]acetamide], with 7.17; and `CN(C(=O)c1ccc(F)cc1)[C@@H]1CCN(CCCOc2ccc(-c3ccc(C#N)cc3)cc2)C1` [Example 119], with 8.11.

Compound `COC(=O)N(C)[C@@H]1CCN(CCCOc2ccc(-c3ccc(C#N)cc3)cc2)C1` [Example 113, methyl (3R)-1-{3-[(4′-cyano[1,1′-biphenyl]-4-yl)oxy]propyl}pyrrolidinyl(methyl)carbamate] had a negative logarithm of the Ki (pKi) of 7.89. Then “N-((3R)-1-{3-[4-(cyclopropylcarbonyl)phenoxy]propyl}pyrrolidinyl)-4-isopropylbenzenesulfonamide [Example 67]”, with 8.54; and `O=C(c1ccc(OCCCN2CC[C@@H](NS(=O)(=O)c3cc(C(F)(F)F)cc(C(F)(F)F)c3)C2)cc1)C1CC1` [Example 83, N-((3R)-1-{3-[4-(cyclopropylcarbonyl)phenoxy]propyl}pyrrolidinyl)-3,5-bis(trifluoromethyl)benzenesulfonamide], with 7.64; and `Cn1cnc(S(=O)(=O)N[C@@H]2CCN(CCCOc3ccc(-c4ccccn4)cc3)C2)c1` [Example 105, 1-methyl-N-((3R)-1-{3-[4-(2-pyridinyl)phenoxy]propyl}pyrrolidinyl)-1 H-imidazole-4-sulfonamide], with 6.14. For `CC(=O)c1ccc(OCCCN2CC[C@@H](N3C(=O)N[C@@H](C)C3=O)C2)cc1` [Example 9, (5S)-3-{(3R)-1-[3-(4-acetylphenoxy)propyl]pyrrolidinyl}-5-methyl-2,4-imidazolidinedione], the negative logarithm of the Ki (pKi) was 6.17. Turning to `N#Cc1ccc(-c2ccc(OCCCN3CC[C@@H](NS(=O)(=O)c4ccc(C#N)cc4)C3)cc2)cc1` [Example 33, 4-cyano-N-((3R)-1-{3-[(4′-cyano[1,1′-biphenyl]-4-yl)oxy]propyl}pyrrolidinyl)benzenesulfonamide], the pKi is 7.80. Take `CC(=O)Nc1ccc(S(=O)(=O)N[C@@H]2CCN(CCCOc3ccc(C(C)=O)cc3)C2)cc1Cl` [Example 76, N-{4-[({(3R)-1-[3-(4-acetylphenoxy)propyl]pyrrolidinyl}amino)sulfonyl]-2-chlorophenyl}acetamide]: the pKi was 8.31.
